Results from patent US20240300886A1, “ARYLCYCLOHEXYLAMINE DERIVATIVES AND THEIR USE IN THE TREATMENT OF PSYCHIATRIC DISORDERS” (GILGAMESH PHARMACEUTICALS, INC., priority 2021, published 2024).

Legend:
[1] = Metabolic stability in dog liver microsomes (DLM); format: in vitro ADME, beagle dogs; conditions: for half-life at 1 μM / microsomal CLint at 1 μM: male, beagle, dog, pooled dog liver microsomes, pH 7.4, 1 μM compound, 0.50 mg protein/mL, NADPH
Protocol: (§1) DLM Stability. Pooled DLM from male beagle dogs (XenoTech D1000) were used. Microsomal incubations were carried out in multi-well plates. Liver microsomal incubation medium consisted of PBS (100 mM, pH 7.4), MgCl2 (1 mM), and NADPH (1 mM), with 0.50 mg of liver microsomal protein per mL. Control incubations were performed by replacing the NADPH-cofactor system with PBS. Test compounds (1 μM, final solvent concentration 1.0%) were incubated with microsomes at 37° C. with constant shaking. Six time points over 60 minutes were analyzed, with 60 μL aliquots of the reaction mixture being drawn at each time point. The reaction aliquots were stopped by adding 180 μL of cold (4° C.) acetonitrile containing 200 ng/mL tolbutamide and 200 ng/mL labetalol as internal standards (TS), followed by shaking for 10 minutes, and then protein sedimentation by centrifugation at 4,000 rpm for 20 minutes at 4° C. Supernatant samples (80 μL) were diluted with water (240 μL) and analyzed for parent compound remaining using a fit-for-purpose liquid chromatography-tandem mass spectrometry (LC-MS/MS) method.
(§2) Data Analysis. The elimination constant (kel), half-life (t1/2) and intrinsic clearance (Clint) were determined in a plot of […] versus time, using linear regression analysis.

[2] = Metabolic stability in rat liver microsomes (RLM); format: in vitro ADME, Sprague Dawley rats; conditions: male, Sprague Dawley, rat, pooled rat liver microsomes, pH 7.4, 1 μM compound, 0.50 mg protein/mL, NADPH
Protocol: as §1, with “RLM” for “DLM”, “Sprague Dawley rats” for “beagle dogs”, “R1000)” for “D1000)”, “(IS),” for “(TS),”
as §2

[3] = Metabolic stability in human liver microsomes (HLM); format: in vitro ADME; conditions: 0.50 mg protein/mL, NADPH; for Clint: 1 μM compound; for half-life at 1 μM: both sexes, human, pooled human liver microsomes, pH 7.4, 1 μM compound
Protocol: HLM Stability. Pooled HLM from adult male and female donors (Corning 452117) were used. Microsomal incubations were carried out in multi-well plates. Liver microsomal incubation medium consisted of PBS (100 mM, pH 7.4), MgCl2 (1 mM), and NADPH ([…]), with 0.50 mg of liver microsomal protein per mL. Control incubations were performed by replacing the NADPH-cofactor system with PBS. Test compounds (1 μM, final solvent concentration 1.0%) were incubated with microsomes at 37° C. with constant shaking, Six time points over 60 minutes were analyzed, with 60 μL aliquots of the reaction mixture being drawn at each time point. The reaction aliquots were stopped by adding 180 μL of cold (4° C.) acetonitrile containing 200 ng/mL tolbutamide and 200 ng/mL labetalol as internal standards (IS), followed by shaking for 10 minutes, and then protein sedimentation by centrifugation at 4,000 rpm for 20 minutes at 4° C. Supernatant samples (80 μL) were diluted with water (240 μL) and analyzed for parent compound remaining using a fit-for-purpose liquid chromatography-tandem mass spectrometry (LC-MS/MS) method.
as §2

[4] = Metabolic stability in mouse liver microsomes (MLM); format: in vitro ADME, CD-1 mice; conditions: male, CD-1, mouse, pooled mouse liver microsomes, pH 7.4, 1 μM compound, 0.50 mg protein/mL, NADPH
Protocol: as §1, with “MLM” for “DLM”, “CD-1 mice” for “beagle dogs”, “M1000)” for “D1000)”, “(IS),” for “(TS),”
Data Analysis. The elimination constant (kel), half-life (t1/2) and intrinsic clearance (Clint) were determined in a plot of ln(AUC) versus […], using linear regression analysis.

[5] = target: MK-801 binding site of the N-methyl-D-aspartate receptor (NMDAR); test: NMDA receptor radioligand binding with [3H]MK-801; parameters: species or system Wistar rat; conditions: for Ki: [3H]MK-801 displacement, Wistar rat brain (minus cerebellum), read-out: NMDAR Ki (95% CI)
Protocol: The binding affinities of disclosed compounds at the MK-801 binding site of the N-methyl-D-aspartate receptor (NMDAR) were determined in radioligand binding experiments (Table 13).
Radioligand Binding. Affinity of the test compounds for NMDAR was determined in radioligand binding experiments with [^3H]MK-801 by Eurofins Panlabs, Inc., using methods adapted from the literature (Javitt el al. 1987; Reynolds et al. 1989) and under the conditions described in Table 14.

SMILES | half-life at 1 μM [1] [h] | microsomal CLint at 1 μM [1] [µL/min/mg] | half-life at 1 μM [2] [h] | microsomal CLint at 1 μM [2] [µL/min/mg] | Clint [3] [μL/min/m] | half-life at 1 μM [3] [h] | half-life at 1 μM [4] [h] | microsomal CLint at 1 μM [4] [µL/min/mg] | Ki [5] [nM] | stability in DLM (in words) [1] | NMDAR binding potency relative to enantiomer 2S (less potent) ([5]; MK-801 site of NMDAR) [fold]
CNC1(c2ccccc2Cl)CCCCC1=O (racemic) [racemic ketamine, ketamine] | 0.04 | 589 | 0.0933 | 294 | 25.5 | 0.907 | 0.257 | 90.1 | – | – | –
N[C@@]1(c2ccc(F)cc2)CCCCC1=O [Compound 1R, (R)-2-amino-2-(4-fluorophenyl)cyclohexan-1-one] | – | – | > 2.42 | < 9.6 | <9.6 | > 2.42 | > 2.42 | < 9.6 | – | – | –
N[C@]1(c2ccc(F)cc2)CCCCC1=O [Compound 1S, (S)-2-amino-2-(4-fluorophenyl)cyclohexan-1-one] | > 2.42 | < 9.6 | > 2.42 | < 9.6 | <9.6 | > 2.42 | > 2.42 | < 9.6 | 1700 | – | –
CN[C@@]1(c2ccc(F)cc2)CCCCC1=O [Compound 2R, (R)-2-(4-fluorophenyl)-2(methylamino)cyclohexan-1-one] | 0.645 | 35.8 | 1.3 | 17.8 | <9.6 | > 2.42 | 2.12 | 10.9 | 3300 | substantially more stable | ~3
CN[C@]1(c2ccc(F)cc2)CCCCC1=O [Compound 2S, (S)-2-(4-fluorophenyl)-2-(methylamino)cyclohexan-1-one] | 0.303 | 76 | 1.01 | 22.8 | <9.6 | > 2.42 | 1.79 | 12.9 | 1200 | – | –
N[C@]1(c2cccc(F)c2)CCCCC1=O [Compound 3S] | 0.862 | 26.8 | 1.58 | 14.6 | <9.6 | > 2.42 | 2.05 | 11.3 | 1700 | – | –
